The target in assay [1] is T1, cloned human muscarinic receptor subtype M1 (Homo sapiens, UniProt P11229).
T1 sequence (P11229 1-460): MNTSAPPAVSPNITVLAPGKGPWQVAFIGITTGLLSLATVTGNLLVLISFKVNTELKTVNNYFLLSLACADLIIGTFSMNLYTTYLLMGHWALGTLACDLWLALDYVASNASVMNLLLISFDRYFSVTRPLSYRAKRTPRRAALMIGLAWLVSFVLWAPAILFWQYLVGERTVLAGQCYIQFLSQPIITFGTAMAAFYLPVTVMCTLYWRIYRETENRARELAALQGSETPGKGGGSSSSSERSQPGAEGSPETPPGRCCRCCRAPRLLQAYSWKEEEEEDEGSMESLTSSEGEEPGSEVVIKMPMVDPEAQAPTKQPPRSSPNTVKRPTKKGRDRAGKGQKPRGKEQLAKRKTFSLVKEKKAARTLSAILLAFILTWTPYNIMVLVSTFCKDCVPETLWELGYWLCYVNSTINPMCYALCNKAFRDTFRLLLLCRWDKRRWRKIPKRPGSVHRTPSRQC
Description: Receptor binding, N-[3H]-methyl-scopolamine, M1. As to conditions: numbers in parentheses.

Assay [2] deals with cloned human muscarinic receptors (M1-M4 subtypes). The assay is described as follows: Receptor binding, values stated across subtypes M1-M4.
Assay [3] deals with T2, cloned human muscarinic receptor subtype M4 (Homo sapiens, UniProt P08173).
T2 construct: purchased Applied Cell Science Inc. (Rockville, Md.)
T2 sequence (P08173 1-479): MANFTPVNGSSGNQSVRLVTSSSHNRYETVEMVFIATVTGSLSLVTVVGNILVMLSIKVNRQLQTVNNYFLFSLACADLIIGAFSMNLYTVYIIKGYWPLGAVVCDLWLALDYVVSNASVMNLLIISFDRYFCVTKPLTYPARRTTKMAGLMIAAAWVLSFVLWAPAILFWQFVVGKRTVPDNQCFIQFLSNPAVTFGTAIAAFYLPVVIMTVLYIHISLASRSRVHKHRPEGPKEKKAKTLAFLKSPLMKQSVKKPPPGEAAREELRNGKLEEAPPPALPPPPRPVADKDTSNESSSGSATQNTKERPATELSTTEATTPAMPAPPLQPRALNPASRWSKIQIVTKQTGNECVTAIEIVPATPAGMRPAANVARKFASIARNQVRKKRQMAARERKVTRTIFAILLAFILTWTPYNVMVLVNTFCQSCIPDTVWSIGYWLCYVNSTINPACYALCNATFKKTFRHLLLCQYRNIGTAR
The assay is described as follows: Receptor binding, N-[3H]-methyl-scopolamine, M4. As to conditions: numbers in parentheses.

Assay [4] deals with T3, cloned human muscarinic receptor subtype M3 (Homo sapiens, UniProt P20309).
T3 construct: purchased Applied Cell Science Inc. (Rockville, Md.)
The assay is described as follows: Receptor binding, N-[3H]-methyl-scopolamine, M3. As to conditions: for M3 Hill slope: numbers in parentheses.

Assay [5] deals with T4, cloned human muscarinic receptor subtype M2 (Homo sapiens, UniProt P08172).
T4 sequence (P08172 1-466): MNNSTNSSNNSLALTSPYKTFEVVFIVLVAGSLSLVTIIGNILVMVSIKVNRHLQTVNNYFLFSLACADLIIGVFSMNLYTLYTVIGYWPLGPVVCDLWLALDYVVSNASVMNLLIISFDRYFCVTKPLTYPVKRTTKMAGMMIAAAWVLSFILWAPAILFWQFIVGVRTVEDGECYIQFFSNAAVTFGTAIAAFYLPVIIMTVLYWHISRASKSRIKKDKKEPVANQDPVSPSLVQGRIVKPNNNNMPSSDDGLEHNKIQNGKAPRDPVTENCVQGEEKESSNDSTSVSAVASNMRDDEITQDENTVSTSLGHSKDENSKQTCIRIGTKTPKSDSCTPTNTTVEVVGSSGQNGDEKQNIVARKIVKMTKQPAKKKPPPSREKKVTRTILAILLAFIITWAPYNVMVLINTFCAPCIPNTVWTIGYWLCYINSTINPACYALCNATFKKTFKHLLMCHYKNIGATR
Description: Receptor binding, N-[3H]-methyl-scopolamine, M2.

In assay [6] the test system is electrically stimulated guinea pig tracheal strips. The class given is cell-based.
For assay [7], the system named is muscarinic M3 cholinoceptors (guinea pig tracheal rings). Format: cell-based.
Where [8] appears, read: Table 6, numbers in parentheses.
Setting [9] is: electrically stimulated guinea pig tracheal strips.
The mark [10] stands for this setting: time from washout to 20% recovery of cholinergic responses.

Where a name gives a salt, the structure may show the parent alone. Read-outs that look alike come from different tables or passages of the source.

T3 sequence (P20309 whole entry): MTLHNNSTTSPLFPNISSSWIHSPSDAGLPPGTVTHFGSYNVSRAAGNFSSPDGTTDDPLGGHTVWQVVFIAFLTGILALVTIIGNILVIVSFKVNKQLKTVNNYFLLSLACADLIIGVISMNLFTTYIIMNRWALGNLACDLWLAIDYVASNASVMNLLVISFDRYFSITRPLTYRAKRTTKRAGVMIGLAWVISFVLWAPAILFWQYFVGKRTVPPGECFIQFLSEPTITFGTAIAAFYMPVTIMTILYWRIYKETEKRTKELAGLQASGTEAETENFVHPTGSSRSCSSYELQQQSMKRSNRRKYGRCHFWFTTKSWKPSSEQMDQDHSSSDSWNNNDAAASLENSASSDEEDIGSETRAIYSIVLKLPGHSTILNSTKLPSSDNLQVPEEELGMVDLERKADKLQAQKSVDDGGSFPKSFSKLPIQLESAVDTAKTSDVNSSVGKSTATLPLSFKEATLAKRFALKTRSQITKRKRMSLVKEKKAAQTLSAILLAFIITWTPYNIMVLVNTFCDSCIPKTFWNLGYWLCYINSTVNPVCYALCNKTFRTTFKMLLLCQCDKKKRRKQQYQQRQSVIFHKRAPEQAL

As to `CCOC(=O)C[N+]1(C)CC[C@H](OC(=O)[C@](O)(c2ccccc2)C2CCCC2)C1` (mixture of isomers) [Compound (j), (2R,3′S) 3(2-Cyclopentyl-2-phenyl-2-hydroxyacetoxy)-1-(ethoxycarbonylmethyl)-1-methylpyrrolidinium bromide], the “M1 Hill slope” value in assay [1] (Table 6) is “(1.21 ± 0.33)”. The “pKi (range over M1-M4)” value in assay [2] is 8.2-8.7. Besides, the “M4 Hill slope” value in assay [3] (Table 6) is “(1.15 ± 0.03)”. Moreover, the “M3/M2 muscarinic-receptor subtype-selectivity” value in assay [4] (M3 affinity relative to M2 affinity) was 2.8±0.8 times. In addition, in assay [4] (Table 6), the “Selectivity M3/M2 (M3/M2 affinity ratio)” value turned out to be 2.8 ± 0.8 times and the “M3 Hill slope” value was “(1.33 ± 0.16)”. Besides, the “M2 Hill slope” value in assay [5] (setting [8]) is “(1.27 ± 0.11)”.

With `C[N+]1(C)CCC(OC(=O)C(O)(c2ccccc2)C2CCCC2)C1` (mixture of isomers) [glycopyrrolate, glycopyrronium bromide], the “M1 Hill slope” value in assay [1] (Table 1) and in assay [1] (Table 6) was “(1.37 ± 0.20)” in each case. In assay [2], the “pKi (range over M1-M4)” value is recorded as 8.7-9.9. The “M4 Hill slope” value in assay [3] (Table 1) and in assay [3] (Table 6) was “(1.02 ± 0.01)” in each case. Moreover, the “M3 Hill slope” value in assay [4] (Table 1) and in assay [4] (Table 6) was “(1.14 ± 0.25)” in each case. Moreover, the “M2 Hill slope” value was “(0.99 ± 0.11)” in assay [5] (Table 1, numbers in parentheses) and “(0.99 ± 0.11)” in assay [5] (setting [8]).

In the case of `CN1[C@@H]2CC[C@H]1C[C@@H](OC(=O)C(CO)c1ccccc1)C2` (stereo partly shown) [Atropine], in assay [6], the t1/5 offset is 10 min and the t1/5 onset is listed as 2.5 min.

In assay [6] (setting [9]), `C[N+]1(CC(=O)[O-])[C@@H]2C[C@@H](OC(=O)C(O)(c3cccs3)c3cccs3)C[C@H]1[C@@H]1O[C@@H]12` (stereo partly drawn) [Compound (aa), 6β,7β-epoxy-3β-hydroxy-8-carboxymethyl-8-methyl-1αH,5αH-tropanium, di-2-thienylglycolate inner salt] registered a t1/5 onset of 0.9 min. Further, the t1/5 offset in assay [6] (setting [10]) is listed as 27 min.

For the molecule `CCOC(=O)C[N+]1(C)[C@@H]2C[C@@H](OC(=O)C(O)(c3cccs3)c3cccs3)C[C@H]1[C@@H]1O[C@@H]12` (stereo partly drawn) [Compound (w), 6β,7β-epoxy-3β-hydroxy-8-ethoxycarbonylmethyl-8-methyl-1αH,5αH-tropanium bromide, di-2-thienylglycolate], the t1/5 onset in assay [6] (setting [9]) amounted to 0.6 min. Also, the t1/5 offset in assay [6] (setting [10]) is listed as 60 min. The pA2 (usually the negative logarithm of the molar antagonist concentration that doubles the agonist concentration needed for the same response) in assay [7] (antagonism against carbachol, isolated guinea pig tracheal rings, four animals) was 8.82.

Molecule `CC(C)[N+]1(C)[C@@H]2CC[C@H]1CC(OC(=O)C(CO)c1ccccc1)C2.[Br-]` (stereo partly shown) [Ipratropium Br, ipratropium bromide] showed a t1/5 onset in assay [6] of 3.0 min. This molecule had a pA2 in assay [7] of 9.18.

In assay [6], `C[N+]1(C)[C@@H]2C[C@@H](OC(=O)C(O)(c3cccs3)c3cccs3)C[C@H]1[C@@H]1O[C@@H]12` [Tiotropium] had a t1/5 offset of over 360 min and a t1/5 onset of 8.0 min.

As for `C[N+]1(C)[C@@H]2C[C@@H](OC(=O)[C@H](CO)c3ccccc3)C[C@H]1[C@@H]1O[C@@H]12` [scopolamine methyl bromide, scopolamine methylbromide], the “M2 Hill slope” value in assay [5] was “(1.02 ± 0.02)”.

The values are drawn from patent US8568699B2, “Soft anticholinergic zwitterions” (priority 2005, dated 2013).
